Measured values taken from paper PMC7272483, “Insights into the pH-dependent, extracellular sucrose utilization and concomitant levan formation by Gluconobacter albidus TMW 2.1191” (Antonie Van Leeuwenhoek, 2020).

Target: T1, levansucrase of G. albidus TMW 2.1191 (Gluconobacter albidus, UniProt A0A149SZ56)
T1 construct: gene lsc-2; cloned levansucrase gene expressed from pBAD in E. coli Top 10, crude lysate (Ni-NTA purification failed); native released enzyme ~48 kDa monomer, also tested in crude buffer supernatant
T1 sequence (A0A149SZ56 1-436): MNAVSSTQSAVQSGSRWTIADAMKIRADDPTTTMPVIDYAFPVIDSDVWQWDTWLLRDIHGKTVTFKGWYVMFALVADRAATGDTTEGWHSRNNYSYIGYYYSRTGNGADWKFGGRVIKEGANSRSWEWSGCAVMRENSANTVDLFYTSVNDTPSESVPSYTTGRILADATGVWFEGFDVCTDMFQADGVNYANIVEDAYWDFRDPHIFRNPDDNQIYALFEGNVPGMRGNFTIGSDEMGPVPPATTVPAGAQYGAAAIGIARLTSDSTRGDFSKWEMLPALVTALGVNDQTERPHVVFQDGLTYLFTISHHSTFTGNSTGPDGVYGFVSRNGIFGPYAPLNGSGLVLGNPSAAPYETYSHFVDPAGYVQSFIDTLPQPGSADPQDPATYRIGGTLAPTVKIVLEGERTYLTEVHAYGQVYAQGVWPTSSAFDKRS
Experiment: glucose/fructose release, enzymatic D-fructose/D-glucose kit
Type: cell-based
Settings: E. coli lysate with recombinant enzyme; pH 3.0-7.0, 30 °C, 1 h; hydrolysis and transfructosylation

SMILES: OC[C@H]1O[C@@](CO)(O[C@H]2O[C@H](CO)[C@@H](O)[C@H](O)[C@H]2O)[C@@H](O)[C@@H]1O [sucrose]
- volumetric activity: the enzyme exhibits comparable activities and Michaelis–Menten kinetics within a broad pH range
